# Key:
# [1] = test system: VMAT2; conditions: cited from earlier work
# [2] = cited from earlier work
# [3] = test system: VMAT2; assay: PET quantification of VMAT2 binding (BPND, Logan noninvasive analysis, cerebellum reference); format: in vivo, cynomolgus monkey; conditions: for Binding potential (BPND) caudate / Binding potential (BPND) midbrain / Binding potential (BPND) putamen: Logan noninvasive analysis, cerebellum as reference region; for peak equilibrium: cynomolgus monkey brain, baseline PET
# From the text: The outcome measure was the binding potential (BPND).
# [4] = PET whole brain uptake and kinetics in cynomolgus monkeys (HRRT); conditions: whole brain peak, baseline PET
# Protocol: Anesthesia was induced by intramuscular injection of ketamine hydrochloride (approximately 10 mg/kg, Ketaminol vet. Intervet) and maintained by the administration of a mixture of sevoflurane, oxygen, and medical air after endotracheal intubation. The head was immobilized using a fixation device.[32]
# Three female cynomolgus monkeys (NHP1, NHP2, and NHP3) (weight of 5.8–6.95 kg) were studied in 10 different experimental days for a total of 12 PET experiments. All PET experiments were performed using a high-resolution research tomograph (HRRT) PET scanner (Siemens Molecular Imaging, Knoxville, TN). A 6 min transmission scan was performed every time before the injection of the radioligands using a single ^137Cs source. […]
# All three monkeys underwent two PET measurements on the same day at once. […] Venous blood sampling was performed manually for the measurement of protein binding, blood, and plasma radioactivity and radiometabolite analysis. […]
# The regions of interest (ROIs) were delineated manually on the MRI images of each NHP for putamen, caudate, midbrain, occipital cortex, and cerebellum. […] Quantification was performed using the Logan graphical analysis, and the cerebellum was used as a reference region. […]
# [5] = Plasma protein binding by ultrafiltration; format: in vitro ADME; conditions: cynomolgus, cynomolgus monkey, pH 7.4, NHP plasma, baseline, read-out: plasma free fraction (fP)
# Protocol: Plasma protein binding of all three radioligands was measured in duplicate in baseline conditions. NHP blood plasma (500 μL) and a PBS solution (pH 7.4, KCl 0.2 mg, KH2PO4 0.2 mg, Na2HPO4 1.42 mg, NaCl 8 mg in 1 mL) were mixed with the respective radioligand (50 μL, approx. 20 MBq in PBS). The plasma mixture was incubated for 10 min at room temperature and a small portion (20 μL) from each incubation mixture was measured in a well counter. A portion (200 μL) from all individual incubation mixtures was pipetted out into ultrafiltration tubes (Millipore Centrifree YM-30) and centrifuged at 3000 rpm for 15 min. Samples (20 μL) from each filtrate were counted in a well counter. The following formula was used to calculate the protein-bound fraction. [drawing 1] where Cpla (total) is the radioactivity concentration of the incubation mixture in plasma, CPBS (total) is the radioactivity concentration of the incubation mixture in PBS, and Cpla (filtrate) and […] the radioactivity concentrations from filtrate samples.
# [6] = Radiometabolite analysis in monkey plasma by gradient radio-HPLC; format: in vivo, cynomolgus monkey; conditions: 90 min after injection
# Protocol: Radiometabolite analysis was performed following a method reported elsewhere.[34] Venous blood samples (2 mL) were obtained from the monkey at different time points such as 2.5, 15, 30, 45, 60, 90, 120, 150, and 180 min after injection of [^18F]FE-DTBZ/[^18F]FE-DTBZ-d4. For [^11C]-DTBZ, venous blood samples (2 mL) were obtained at time points 2.5, 15, 30, 45, 60, and 90 min after injection. Collected blood was centrifuged at 2000g for 2 min to obtain the plasma (0.5 mL). The plasma was mixed with 1.4 times volume of acetonitrile followed by centrifugation at 2000g for 4 min. The extract was separated from the pellet and was diluted with water before injecting into the HPLC equipped with a reverse-phase μ-Bondapak HPLC column, (300 mm × 10 mm I.D). […] Peaks for radioactive compounds eluting from the column were integrated and their areas were expressed as a percentage of the sum of the areas of all detected radioactive compounds (decay-corrected to the time of injection on the HPLC). To calculate the recovery of radioactivity from the system, an aliquot (2 mL) of the eluate from the HPLC column was measured and divided by the amount of the total injected radioanalyte.
# [7] = test system: VMAT2; conditions: rats; cited from earlier work
# [8] = test system: VMAT2; assay: Pretreatment and displacement PET with tetrabenazine using [^18F]FE-DTBZ-d4; format: in vivo, cynomolgus monkey; conditions: tetrabenazine 2 mg/kg
# Protocol: In NHP1, one PET measurement was performed after pretreatment with tetrabenazine (2 mg/kg), which was administered 15 min prior to the administration of [^18F]FE-DTBZ-d4. In NHP2, two displacement experiments were performed with the administration of tetrabenazine (2 mg/kg) 25 min after the injection of [^18F]FE-DTBZ-d4.
# The regions of interest (ROIs) were delineated manually on the MRI images of each NHP for putamen, caudate, midbrain, occipital cortex, and cerebellum. The MRI of all of the individual NHPs was coregistered to summed PET images of the whole PET measurement. The time–activity curves of NHP brain regions were generated from dynamic PET data with the application of the coregistration parameters to ROIs. Quantification was performed using the Logan graphical analysis, and the cerebellum was used as a reference region. The outcome measure was the binding potential (BPND).
peak equilibrium [3],brain uptake (SUV) [4],"fraction unbound at 10 min, 36 MBq/mL [5]",percent of unchanged radioligand in plasma [6],"uptake of [^18F]FE-DTBZ-d4 in caudate, putamen, and midbrain in displacement experiment ([8]; 25 min after radioligand injection)",SMILES,better binding affinity over the (−)-enantiomer [1],in vivo metabolism ([2]; large piglet model),Binding potential (BPND) caudate [3],Binding potential (BPND) midbrain [3],Binding potential (BPND) putamen [3],striatum-to-cerebellum ratio [7],"bone uptake ([2]; PET/CT in pigs, compared with [^18F]FE-(+)-DTBZ)","uptake of [^18F]FE-DTBZ-d4 in caudate, putamen, and midbrain after pretreatment ([8]; 15 min prior to radioligand injection)"
–,–,–,–,–,"COc1cc2c(cc1OC)[C@H]1C[C@@H](O)[C@H](CC(C)C)CN1CC2 (single isomer, unassigned) [(+)-enantiomer, dihydrotetrabenazine]",1000 fold,–,–,–,–,–,–,–
> 60 min,3.43 ± 0.54,0.56,10 ± 4%,–,"COc1cc2c(cc1OCC[18F])CCN1C[C@@H](CC(C)C)[C@H](O)C[C@H]21 [[^18F]FE-DTBZ, ^18F-fluoroethyl-(+)-dihydrotetrabenazine]",–,metabolized extensively by in vivo defluorination,3.8 ± 0.5,1.1 ± 0.1,4.7 ± 0.3,relatively poor,–,–
40 min,4.28 ± 1.01,0.52 ± 0.01,30 ± 17%,–,[2H]C([2H])([18F])C([2H])([2H])Oc1cc2c(cc1OC)[C@H]1C[C@@H](O)[C@H](CC(C)C)CN1CC2 [[^18F]FE-DTBZ-d4],–,–,4.4 ± 1.1,1.4 ± 0.4,5.5 ± 1.4,–,lower bone uptake,–
–,–,–,–,clear reduction,COc1cc2c(cc1OC)C1CC(=O)C(CC(C)C)CN1CC2 (centres unmarked) [tetrabenazine],–,–,–,–,–,–,–,decreased almost to the level of the cerebellum and occipital cortex
